Source: publication PMC10572522, “A Designed Analog of an Antimicrobial Peptide, Crabrolin, Exhibits Enhanced Anti-Proliferative and In Vivo Antimicrobial Activity” (International Journal of Molecular Sciences, 2023)
Residues, ends and D or L forms follow the SMILES beside them.

Columns and labels:
[1] = tested on: S. aureus (NCTC 10788); experiment: Antimicrobial susceptibility assay (MIC/MBC); type: cell-based, Staphylococcus aureus; conditions: for MIC: MHB, 37 °C, 20 h
Method: (§1) Six bacteria were tested in this experiment to detect the antimicrobial effects of crabrolin and its derivatives, including S. aureus (NCTC 10788), MRSA (NCTC 12493), E. coli (ATCC 8739), K. pneumoniae (ATCC 43816), E. faecium (NTCC-12697), and P. aeruginosa (ATCC 9027). The tested bacteria were cultured in Mueller Hinton broth medium (MHB) with norfloxacin (20 mg/L) as a positive control. All bacteria were incubated at 37 °C overnight and diluted to 5 × 10^5 CFU/mL before treating with the peptides. Stock solutions of 51,200 µM peptides were prepared in phosphate-buffered saline (PBS) and further diluted by a factor of two to 100 µM. Next, 1 µL of each peptide solution was mixed with 99 µL of bacterial subculture in a 96-well plate, and the plate was incubated at 37 °C for 20 h. After culturing, the absorbance of each well in the 96-well plate was analyzed at 550 nm using a Synergy HT plate reader (BioliseBioTek, Winooski, VT, USA). […] Starting with the MIC value, 10 µL of the solution from each well was dripped onto Mueller Hinton agar (MHA) plates. The plates were cultured at 37 °C for 20 h. After culturing, the lowest concentration with no colony growth was regarded as the MBC.

[2] = tested on: E. coli (ATCC 8739); experiment: Antimicrobial susceptibility assay (MIC/MBC); type: cell-based, Escherichia coli; conditions: for MIC: MHB, 37 °C, 20 h
Method: as §1

[3] = tested on: MRSA (NCTC 12493); experiment: Antimicrobial susceptibility assay (MIC/MBC); type: cell-based, methicillin-resistant Staphylococcus aureus; conditions: for MIC: MHB, 37 °C, 20 h
Method: as §1

[4] = tested on: K. pneumoniae (ATCC 43816); experiment: Antimicrobial susceptibility assay (MIC/MBC); type: cell-based, Klebsiella pneumoniae; conditions: for MIC: MHB, 37 °C, 20 h
Method: as §1

[5] = tested on: E. faecium (NTCC 12697); experiment: Antimicrobial susceptibility assay (MIC/MBC); type: cell-based, Enterococcus faecium; conditions: for MIC: MHB, 37 °C, 20 h
Method: as §1

[6] = tested on: P. aeruginosa (ATCC 9027); experiment: Antimicrobial susceptibility assay (MIC/MBC); type: cell-based, Pseudomonas aeruginosa; conditions: for MIC: MHB, 37 °C, 20 h
Method: as §1

[7] = tested on: MRSA (NCTC 12493) biofilm; type: cell-based, methicillin-resistant Staphylococcus aureus; conditions: for MBIC: biofilm inhibitory rate more than 90%; for MBEC: eradication rate greater than 99.9%
Method: (§2) To measure the antibiofilm activity of crabrolin and its derivatives, four drug-resistant biofilm-forming strains, MRSA (NCTC 12493), K. pneumoniae (ATCC 43816), E. faecium (NTCC-12697), and P. aeruginosa (ATCC 9027), were used in this assay. Tryptic soy broth (TSB) (for the Gram-positive bacteria) and Luria–Bertani broth (LB) (for the Gram-negative bacteria) were used to culture the bacteria.
(§3) The mass of the biofilm in this assay was detected by the crystal violet staining method. First, 100 μL of 5 × 10^5 CFU/mL bacteria was incubated with 1 μL of different peptide solutions (ranging from 51200 μM to 100 μM) for 24 h at 37 °C with 200 rpm shaking. After the biofilm formation, 100 μL of PBS was used to rinse the biofilm twice. Next, 100 µL of methanol was added to fix the biofilm, and the biofilm was then dried. Thereafter, 100 μL of 0.1% crystal violet was added and left to stain for 15 min, and then the excess crystal violet was further rinsed by PBS. After the plate had air-dried, 30% glacial acetic acid was added to each well of the plate, and the plate was shaken for 15 min before the optical density (OD) value was measured at 595 nm using a Synergy HT plate reader. The MBIC value refers to the minimum concentration at which the biofilm inhibitory rate was more than 90%.
(§4) Different from measuring the MBIC value, to determine the MBEC value, 100 μL of the bacteria was first added to 96-well plates. After the biofilm was formed, the biofilm was rinsed with PBS twice to remove the planktonic cells, and then different concentrations of the drugs were added to the biofilm (the same as the MBIC assay). The mixture was incubated at 37 °C with shaking at 200 rpm. After 24 h of incubation, the mass of the biofilm was measured in the same way as the MBIC value, and the minimum concentration at which the eradication rate was greater than 99.9% was considered to be the MBEC value.

[8] = tested on: K. pneumoniae (ATCC 43816) biofilm; type: cell-based, Klebsiella pneumoniae; conditions: for MBIC: biofilm inhibitory rate more than 90%; for MBEC: eradication rate greater than 99.9%
Method: as §2, §3, §4

[9] = tested on: E. faecium (NTCC12697) biofilm; type: cell-based, Enterococcus faecium; conditions: for MBIC: biofilm inhibitory rate more than 90%; for MBEC: eradication rate greater than 99.9%
Method: as §2, §3, §4

[10] = tested on: P. aeruginosa (ATCC 9027) biofilm; type: cell-based, Pseudomonas aeruginosa; conditions: for MBIC: biofilm inhibitory rate more than 90%; for MBEC: eradication rate greater than 99.9%
Method: as §2, §3, §4

[11] = tested on: human breast cancer cell line MCF-7; experiment: Anti-proliferative assay (MTT); type: cell-based; conditions: MCF-7, MTT, 24 h
Method: (§5) The human non-small-cell lung cancer line, H838, the human prostate carcinoma cell line, PC-3, the human glioblastoma astrocytoma, U251MG, the human breast cancer cell line, MCF-7, the human colorectal carcinoma cell line, HCT116, and the human keratinocyte cell line, HaCaT, were used to detect the anti-proliferative effects of the crabrolin and its derivatives in vitro. A total of 8000 cells were seeded in each well of a 96-well plate. After the cells had adhered to the wall, the cells were starved for 4 h. After the starvation, the cells were incubated with different concentrations of the drugs, ranging from 100 µM to 1 nM, for 24 h, with 0.1% Triton X-100 used as a positive control. Next, 10 µL of MTT (3-(4,5-dimethylthiazol-2-yl)-2,5-diphenyltetrazolium bromide) solution (5 mg/mL) was added to each well of the 96-well plate. After 2 h of incubation, 100 μL of DMSO-superseded medium was added to each well to dissolve the formazan crystals. Finally, the absorbance was detected using a Synergy HT plate reader at 570 nm.

[12] = tested on: human colorectal carcinoma cell line HCT-116; experiment: Anti-proliferative assay (MTT); type: cell-based; conditions: HCT-116, MTT, 24 h
Method: as §5

[13] = tested on: human glioblastoma astrocytoma U251MG; experiment: Anti-proliferative assay (MTT); type: cell-based; conditions: 24 h
Method: as §5

[14] = tested on: human keratinocyte cell line HaCaT; experiment: Anti-proliferative assay (MTT); type: cell-based; conditions: HaCaT (normal keratinocytes), 24 h
Method: as §5

[15] = tested on: human non-small-cell lung cancer line H838; experiment: Anti-proliferative assay (MTT); type: cell-based; conditions: 24 h
Method: as §5

[16] = tested on: human prostate carcinoma cell line PC-3; experiment: Anti-proliferative assay (MTT); type: cell-based; conditions: PC3, MTT, 24 h
Method: as §5

[17] = Hemolysis assay; type: cell-based, horse; conditions: horse, erythrocytes (2% suspension); at the peptide's maximum MIC; relative to Triton X-100; read-out: Hemolysis under the Maximum MIC
Method: (§6) According to the procedures described in detail in a previous study, the debris and impurities of the erythrocytes were washed with PBS in advance to yield 2% of the erythrocyte suspension, and the drug concentration was diluted from 1024 µM to 2 µM with PBS [53]. The same amounts of the drug and the erythrocyte suspension were mixed and cultured at 37 °C for 2 h; 0.1% Triton X-100 (Sigma-Aldrich, St. Louis, MO, USA) was prepared as a positive control, and PBS was prepared as a negative control. After the incubation, the supernatant was transferred to a 96-well plate and then detected using a Synergy HT plate reader at 570 nm.

[18] = tested on: horse erythrocytes; experiment: Hemolysis assay; type: cell-based; conditions: for HC10 (10% hemolytic concentration): erythrocytes, 37 °C, 2 h
Method: as §6

CC[C@H](C)[C@H](NC(=O)[C@H](CCCNC(=N)N)NC(=O)[C@@H]1CCCN1C(=O)[C@H](CC(C)C)NC(=O)[C@@H](N)CCCNC(=N)N)C(=O)N[C@@H](CC(C)C)C(=O)N[C@@H](CCCNC(=N)N)C(=O)N[C@@H](CCCCN)C(=O)N[C@H](C(=O)N[C@H](C(=O)N[C@@H](CCCNC(=N)N)C(=O)N[C@@H](C)C(=O)N[C@@H](CC(C)C)C(N)=O)C(C)C)[C@@H](C)CC [Crabrolin-FR, RLPRILRKIVRAL-NH2] (H-RLPRILRKIVRAL-NH2)
MBC [1]: 2 µM | MIC [1]: 2 µM | MBC [2]: 4 µM | MIC [2]: 2 µM | MBC [3]: 4 µM | MIC [3]: 4 µM | MBC [4]: 16 µM | MIC [4]: 8 µM | MBC [5]: 16 µM | MIC [5]: 8 µM | MBC [6]: 16 µM | MIC [6]: 4 µM | MBIC [7]: 8 µM | MBEC [7]: 256 µM | MBIC [8]: 8 µM | MBEC [8]: 512 µM | MBIC [9]: 32 µM | MBEC [9]: > 512 µM | MBIC [10]: 8 µM | MBEC [10]: > 512 µM | IC50 [11]: 33.9 µM | IC50 [12]: 30.3 µM | IC50 [13]: 62.2 µM | IC50 [14]: 30.4 µM | IC50 [15]: 31.5 µM | IC50 [16]: 15.9 µM | hemolysis at 2 h [17]: 5.67% | HC10 (10% hemolytic concentration) [18]: 18.082 µM

CC[C@H](C)[C@H](NC(=O)[C@H](CCCNC(=N)N)NC(=O)[C@H](CCCNC(=N)N)NC(=O)[C@H](CC(C)C)NC(=O)[C@@H](N)CCCNC(=N)N)C(=O)N[C@@H](CC(C)C)C(=O)N[C@@H](CCCNC(=N)N)C(=O)N[C@@H](CCCCN)C(=O)N[C@H](C(=O)N[C@H](C(=O)N[C@@H](CCCNC(=N)N)C(=O)N[C@@H](CCCNC(=N)N)C(=O)N[C@@H](CC(C)C)C(N)=O)C(C)C)[C@@H](C)CC [Crabrolin-PR, RLRRILRKIVRRL-NH2] (H-RLRRILRKIVRRL-NH2)
MBC [1]: 4 µM | MIC [1]: 2 µM | MBC [2]: 8 µM | MIC [2]: 2 µM | MBC [3]: 8 µM | MIC [3]: 4 µM | MBC [4]: 16 µM | MIC [4]: 8 µM | MBC [5]: 16 µM | MIC [5]: 8 µM | MBC [6]: 16 µM | MIC [6]: 4 µM | MBIC [7]: 8 µM | MBEC [7]: 512 µM | MBIC [8]: 8 µM | MBEC [8]: > 512 µM | MBIC [9]: 32 µM | MBEC [9]: > 512 µM | MBIC [10]: 8 µM | MBEC [10]: > 512 µM | IC50 [11]: 12.3 µM | IC50 [12]: 16.3 µM | IC50 [13]: 17.7 µM | IC50 [14]: 29.5 µM | IC50 [15]: 32.3 µM | IC50 [16]: 22.4 µM | hemolysis at 2 h [17]: 3.09% | HC10 (10% hemolytic concentration) [18]: 5019 µM | Hemolytic activity at the measured maximum concentration ([18]; maximum concentration (range 1 to 512 μM)): less than 1%
